Assay results reported in PubChem BioAssay (NCI).
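These data come from cells grown in 96-well plates and exposed to compound for 48 hours at five concentrations. Here, GI50 denotes the concentration required for 50% inhibition of growth. The concentration for full growth arrest is given as TGI.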

What was measured:
Assay in all cases: growth of human tumour cells (NCI), 48 h
NCI-H460 lung = system: NCI-H460 lung
NCI-H522 lung = system: NCI-H522 lung
NCI/ADR-RES ovarian = system: NCI/ADR-RES ovarian
OVCAR-3 ovarian = system: OVCAR-3 ovarian
OVCAR-4 ovarian = system: OVCAR-4 ovarian
OVCAR-5 ovarian = system: OVCAR-5 ovarian
OVCAR-8 ovarian = system: OVCAR-8 ovarian
PC-3 prostate = system: PC-3 prostate
RPMI-8226 leukemia = system: RPMI-8226 leukemia
RXF 393 renal = system: RXF 393 renal
SF-268 CNS = system: SF-268 CNS
SF-295 CNS = system: SF-295 CNS
SF-539 CNS = system: SF-539 CNS
SK-MEL-2 melanoma = system: SK-MEL-2 melanoma
SK-MEL-28 melanoma = system: SK-MEL-28 melanoma
SK-MEL-5 melanoma = system: SK-MEL-5 melanoma
SK-OV-3 ovarian = system: SK-OV-3 ovarian
SN12C renal = system: SN12C renal
SNB-19 CNS = system: SNB-19 CNS
SNB-75 CNS = system: SNB-75 CNS
SR leukemia = system: SR leukemia
SW-620 colon = system: SW-620 colon
T-47D breast = system: T-47D breast
TK-10 renal = system: TK-10 renal
U251 CNS = system: U251 CNS
UACC-257 melanoma = system: UACC-257 melanoma
UACC-62 melanoma = system: UACC-62 melanoma
UO-31 renal = system: UO-31 renal

## Cn1cc(C2=C(c3cn(CCCCCO)c4ccccc34)C(=O)NC2=O)c2ccccc21
NCI-H460 lung
  GI50: 6.01 µM
  TGI: 14.8 µM
NCI-H522 lung
  GI50: 2.27 µM
  TGI: 10.6 µM
NCI/ADR-RES ovarian
  GI50: 7.04 µM
  TGI: > 22.5 µM
OVCAR-3 ovarian
  GI50: 5.48 µM
  TGI: 17.3 µM
OVCAR-4 ovarian
  GI50: 5.11 µM
  TGI: 17.5 µM
OVCAR-5 ovarian
  GI50: 11.8 µM
  TGI: > 25 µM
OVCAR-8 ovarian
  GI50: 6.3 µM
  TGI: > 20.2 µM
PC-3 prostate
  GI50: 6.88 µM
  TGI: > 24.1 µM
RPMI-8226 leukemia
  GI50: 6.6 µM
  TGI: 18.4 µM
RXF 393 renal
  GI50: 3.51 µM
  TGI: 9.61 µM
SF-268 CNS
  GI50: 6.34 µM
  TGI: 19.1 µM
SF-295 CNS
  GI50: 4.5 µM
  TGI: 13.9 µM
SF-539 CNS
  GI50: 3.16 µM
  TGI: 8.55 µM
SK-MEL-2 melanoma
  GI50: 2.83 µM
  TGI: 8.15 µM
SK-MEL-28 melanoma
  GI50: 4.92 µM
  TGI: 15.7 µM
SK-MEL-5 melanoma
  GI50: 3.29 µM
  TGI: 6.82 µM
SK-OV-3 ovarian
  GI50: 4.92 µM
  TGI: 17.8 µM
SN12C renal
  GI50: 5.55 µM
  TGI: 19.5 µM
SNB-19 CNS
  GI50: 8.41 µM
  TGI: > 23.2 µM
SNB-75 CNS
  GI50: 1.21 µM
  TGI: 8.9 µM
SR leukemia
  GI50: 1.57 µM
  TGI: 11 µM
SW-620 colon
  GI50: 3.17 µM
  TGI: > 25 µM
T-47D breast
  GI50: 6.44 µM
  TGI: 16 µM
TK-10 renal
  GI50: 6.11 µM
  TGI: 16 µM
U251 CNS
  GI50: 5.98 µM
  TGI: > 17.3 µM
UACC-257 melanoma
  GI50: 9.48 µM
  TGI: > 25 µM
UACC-62 melanoma
  GI50: 3.99 µM
  TGI: 9.17 µM
UO-31 renal
  GI50: 4.11 µM
  TGI: 12.9 µM
